The record followed here is PubChem BioAssay AID180 (DTP/NCI, 2004).

Each structure is given as a SMILES string. Several values for one entry are separate records, joined by “and”; a condition that tells them apart may be missing. Identical values can stand only once.

The assay has as its system BDF1 mice, Adenocarcinoma 755 s.c., tumor weight T/C. The assay can be described thus: NCI In Vivo Anticancer Drug Screen. Data for tumor model Adenocarcinoma 755 (subcutaneous) in B6D2F1 (BDF1) mice. Conditions: endpoint: mean tumor weight, higher = larger tumour. In outline:
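Transplantable tumor implanted; mice dosed with compound or vehicle; survival or tumor size recorded; ratio of treated to vehicle control reported.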

Setting [1] is: dose: 30.0 mg/kg/injection, schedule: Q01DX011 (ip), vehicle: carboxymethylcellulose (CMC).
Setting [2] is: dose: 60.0 mg/kg/injection, schedule: Q01DX011 (ip), vehicle: carboxymethylcellulose (CMC).
Setting [3] is: dose: 175.0 mg/kg/injection, schedule: Q01DX011 (ip), vehicle: carboxymethylcellulose (CMC).

As for `Cc1cc(=O)c2c(C)cccc2[nH]1`, the T/C – broadly, the ratio of treated to control – (dose: 10.0 mg/kg/injection, schedule: Q01DX011 (ip), vehicle: carboxymethylcellulose (CMC)) was 112 % of control; the T/C (dose: 10.0 mg/kg/injection, schedule: Q01DX011 (ip), vehicle: methylcellulose (MC)) is 60 % of control; the T/C (dose: 20.0 mg/kg/injection, schedule: Q01DX011 (ip), vehicle: carboxymethylcellulose (CMC)) is 105 % of control; the T/C (dose: 20.0 mg/kg/injection, schedule: Q01DX011 (ip), vehicle: methylcellulose (MC)) is 59 % of control; the T/C (dose: 40.0 mg/kg/injection, schedule: Q01DX011 (ip), vehicle: carboxymethylcellulose (CMC)) is 86 % of control; the T/C (dose: 40.0 mg/kg/injection, schedule: Q01DX011 (ip), vehicle: methylcellulose (MC)) is 72 % of control. In addition, the T/C is, setting by setting: (dose: 80.0 mg/kg/injection, schedule: Q01DX011 (ip), vehicle: carboxymethylcellulose (CMC)) 58 % of control and 60 % of control and 75 % of control; (dose: 80.0 mg/kg/injection, schedule: Q01DX011 (ip), vehicle: methylcellulose (MC)) 57 % of control; (dose: 160.0 mg/kg/injection, schedule: Q01DX011 (ip), vehicle: carboxymethylcellulose (CMC)) 106 % of control; (dose: 320.0 mg/kg/injection, schedule: Q01DX011 (ip), vehicle: carboxymethylcellulose (CMC)) 106 % of control.

As to `O=C(Nc1nc2c(ncn2C2CC(OC(=O)c3ccccc3)C(COC(=O)c3ccccc3)O2)c(=O)[nH]1)c1ccccc1` (configuration not stated), the T/C under setting [1] is 103 % of control; the T/C under setting [2] was 94 % of control; the T/C (dose: 120.0 mg/kg/injection, schedule: Q01DX011 (ip), vehicle: carboxymethylcellulose (CMC)) was 113 % of control; the T/C (dose: 240.0 mg/kg/injection, schedule: Q01DX011 (ip), vehicle: carboxymethylcellulose (CMC)) was 124 % of control.

For `CCOC(=O)c1cc[c]([Sb](=[O])([OH])[OH])cc1`, the T/C runs as follows: (dose: 12.0 mg/kg/injection, schedule: Q01DX011 (ip), vehicle: methylcellulose (MC)) 116 % of control; (dose: 15.0 mg/kg/injection, schedule: Q01DX011 (ip), vehicle: carboxymethylcellulose (CMC)) 70 % of control; (dose: 50.0 mg/kg/injection, schedule: Q01DX011 (ip), vehicle: methylcellulose (MC)) 55 % of control; (dose: 100.0 mg/kg/injection, schedule: Q01DX011 (ip), vehicle: methylcellulose (MC)) 102 % of control.

`CCOC(=O)C(N)Cc1ccc(N(CCCl)CCCl)cc1` (configuration not stated): the T/C reads like this: (dose: 0.5 mg/kg/injection, schedule: Q01DX011 (ip), vehicle: carboxymethylcellulose (CMC)) 92 % of control; (dose: 0.5 mg/kg/injection, schedule: Q01DX011 (ip), vehicle: saline) 82 % of control; (dose: 1.1 mg/kg/injection, schedule: Q01DX011 (ip), vehicle: carboxymethylcellulose (CMC)) 77 % of control; (dose: 1.1 mg/kg/injection, schedule: Q01DX011 (ip), vehicle: saline) 40 % of control; (dose: 2.2 mg/kg/injection, schedule: Q01DX011 (ip), vehicle: carboxymethylcellulose (CMC)) 91 % of control; (dose: 2.2 mg/kg/injection, schedule: Q01DX011 (ip), vehicle: saline) 9 % of control. Besides, the T/C is, setting by setting: (dose: 4.5 mg/kg/injection, schedule: Q01DX011 (ip), vehicle: carboxymethylcellulose (CMC)) 78 % of control; (dose: 4.5 mg/kg/injection, schedule: Q01DX011 (ip), vehicle: saline) 1 % of control; (dose: 9.0 mg/kg/injection, schedule: Q01DX011 (ip), vehicle: carboxymethylcellulose (CMC)) 69 % of control.

Take `Nc1nc(SCc2ccccc2Cl)c2ncn(C3CCCCC3)c2n1`: the T/C reads like this: (dose: 25.0 mg/kg/injection, schedule: Q01DX011 (ip), vehicle: methylcellulose (MC)) 180 % of control; (dose: 75.0 mg/kg/injection, schedule: Q01DX011 (ip), vehicle: methylcellulose (MC)) 166 % of control.

In the case of `ClCCn1cnc2c(SCc3ccccc3)ncnc21`, the T/C was 115 % of control (dose: 0.5 mg/kg/injection, schedule: Q01DX011 (ip), vehicle: other); 98 % of control (dose: 0.5 mg/kg/injection, schedule: Q01DX011 (oral), vehicle: other); 72 % of control (dose: 1.0 mg/kg/injection, schedule: Q01DX011 (ip), vehicle: other); 79 % of control (dose: 1.0 mg/kg/injection, schedule: Q01DX011 (oral), vehicle: other); 67 % of control (dose: 2.0 mg/kg/injection, schedule: Q01DX011 (ip), vehicle: other); 72 % of control (dose: 2.0 mg/kg/injection, schedule: Q01DX011 (oral), vehicle: other). The T/C runs as follows: (dose: 4.0 mg/kg/injection, schedule: Q01DX011 (ip), vehicle: other) 36 % of control; (dose: 4.0 mg/kg/injection, schedule: Q01DX011 (oral), vehicle: other) 40 % of control; (dose: 8.0 mg/kg/injection, schedule: Q01DX011 (ip), vehicle: other) 3 % of control; (dose: 15.0 mg/kg/injection, schedule: Q01DX011 (ip), vehicle: other) 3 % of control; (dose: 15.0 mg/kg/injection, schedule: Q01DX011 (oral), vehicle: other) 7 % of control; (dose: 25.0 mg/kg/injection, schedule: Q01DX011 (ip), vehicle: carboxymethylcellulose (CMC)) 1 % of control. Moreover, the T/C (dose: 50.0 mg/kg/injection, schedule: Q01DX011 (ip), vehicle: carboxymethylcellulose (CMC)) was 3 % of control.

Regarding `CCCCCCCCCCCCCCCCCCN(C)C`, the T/C reads like this: (dose: 12.0 mg/kg/injection, schedule: Q01DX011 (ip), vehicle: distilled water + alcohol) 61 % of control; (dose: 18.0 mg/kg/injection, schedule: Q01DX011 (ip), vehicle: distilled water + alcohol) 43 % of control; (dose: 27.0 mg/kg/injection, schedule: Q01DX011 (ip), vehicle: distilled water + alcohol) 51 % of control; (dose: 40.0 mg/kg/injection, schedule: Q01DX011 (ip), vehicle: distilled water + alcohol) 36 % of control.

For `CC(C)=NOC(N)=O`, the T/C by setting is: (dose: 100.0 mg/kg/injection, schedule: Q01DX011 (ip), vehicle: water) 122 % of control; (dose: 200.0 mg/kg/injection, schedule: Q01DX011 (ip), vehicle: water) 106 % of control.

For the compound `CCCCSc1ncnc2c1ncn2C1CCCCO1` (configuration not stated), the T/C by setting is: (dose: 9.2 mg/kg/injection, schedule: Q01DX011 (ip), vehicle: carboxymethylcellulose (CMC)) 78 % of control; (dose: 14.0 mg/kg/injection, schedule: Q01DX011 (ip), vehicle: carboxymethylcellulose (CMC)) 58 % of control; (dose: 21.0 mg/kg/injection, schedule: Q01DX011 (ip), vehicle: carboxymethylcellulose (CMC)) 35 % of control; (dose: 31.0 mg/kg/injection, schedule: Q01DX011 (ip), vehicle: carboxymethylcellulose (CMC)) 17 % of control; (dose: 47.0 mg/kg/injection, schedule: Q01DX011 (ip), vehicle: carboxymethylcellulose (CMC)) 21 % of control; (dose: 63.0 mg/kg/injection, schedule: Q01DX011 (ip), vehicle: carboxymethylcellulose (CMC)) 11 % of control. The T/C by setting is: (dose: 94.0 mg/kg/injection, schedule: Q01DX011 (ip), vehicle: carboxymethylcellulose (CMC)) 8 % of control; (dose: 125.0 mg/kg/injection, schedule: Q01DX011 (ip), vehicle: carboxymethylcellulose (CMC)) 9 % of control; under setting [3], 12 % of control; (dose: 188.0 mg/kg/injection, schedule: Q01DX011 (ip), vehicle: carboxymethylcellulose (CMC)) 2 % of control; (dose: 262.5 mg/kg/injection, schedule: Q01DX011 (ip), vehicle: carboxymethylcellulose (CMC)) 14 % of control.

On to `O=C1C(NC(=O)C2CCCCC2)=C(N2CC2)C(=O)C(NC(=O)C2CCCCC2)=C1N1CC1`, for which the T/C is, setting by setting: (dose: 43.75 mg/kg/injection, schedule: Q01DX011 (ip), vehicle: carboxymethylcellulose (CMC)) 48 % of control; (dose: 44.0 mg/kg/injection, schedule: Q01DX011 (ip), vehicle: carboxymethylcellulose (CMC)) 67 % of control; (dose: 44.0 mg/kg/injection, schedule: Q01DX011 (ip), vehicle: other) 76 % of control; (dose: 87.5 mg/kg/injection, schedule: Q01DX011 (ip), vehicle: carboxymethylcellulose (CMC)) 9 % of control and 30 % of control; (dose: 88.0 mg/kg/injection, schedule: Q01DX011 (ip), vehicle: other) 21 % of control; (dose: 100.0 mg/kg/injection, schedule: Q01DX011 (ip), vehicle: carboxymethylcellulose (CMC)) 104 % of control. Besides, the T/C is 12 % of control and 33 % of control under setting [3]; 28 % of control (dose: 175.0 mg/kg/injection, schedule: Q01DX011 (ip), vehicle: other); 93 % of control (dose: 200.0 mg/kg/injection, schedule: Q01DX011 (oral), vehicle: carboxymethylcellulose (CMC)); 50 % of control (dose: 400.0 mg/kg/injection, schedule: Q01DX011 (oral), vehicle: carboxymethylcellulose (CMC)); 68 % of control (dose: 800.0 mg/kg/injection, schedule: Q01DX011 (oral), vehicle: carboxymethylcellulose (CMC)).

As to `CSc1ncn(C)c2ncnc1-2`, the T/C was 58 % of control under setting [1] and 71 % of control under setting [2].
